Source: PubChem BioAssay (NCI)
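Compound exposure: 48 hours, 5 concentrations, 96-well plates. GI50: concentration for 50% inhibition of growth. TGI: total growth inhibition.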 Where a SMILES comes first, the peptide text is derived from it. [ ]: non-standard residue; d: D form. The star is where a group is joined. X28 = COC1=CC(=O)N(C(=O)[C@@H](O*)C(C)C)[C@H]1Cc1ccccc1; Bn2Val = CC(C)[C@@H](C(=O)*)N(Cc1ccccc1)Cc1ccccc1; NMeV = CN[C@H](C(=O)O)C(C)C; dNMeA = CN[C@H](C)C(=O)O

What was measured:
Assay in all cases: DTP human tumour cell line panel, 48 h
SNB-75 CNS = tested on: SNB-75 CNS
SF-268 CNS = tested on: SF-268 CNS
CCRF-CEM leukemia = tested on: CCRF-CEM leukemia
KM12 colon = tested on: KM12 colon
MDA-MB-231 breast = tested on: MDA-MB-231 breast
MDA-MB-435 = tested on: MDA-MB-435
EKVX NSCLC = tested on: EKVX NSCLC
MALME-3M melanoma = tested on: MALME-3M melanoma
HS 578T breast = tested on: HS 578T breast
MOLT-4 leukemia = tested on: MOLT-4 leukemia

SMILES	TGI (SNB-75 CNS) [µM]	TGI (SF-268 CNS) [µM]	TGI (CCRF-CEM leukemia) [µM]	TGI (KM12 colon) [µM]	TGI (MDA-MB-231 breast) [µM]	TGI (MDA-MB-435) [µM]	TGI (EKVX NSCLC) [µM]	TGI (MALME-3M melanoma) [µM]	TGI (HS 578T breast) [µM]	TGI (MOLT-4 leukemia) [µM]	GI50 (SNB-75 CNS) [µM]	GI50 (SF-268 CNS) [µM]	GI50 (KM12 colon) [µM]	GI50 (MDA-MB-231 breast) [µM]	GI50 (MDA-MB-435) [µM]	GI50 (EKVX NSCLC) [µM]	GI50 (HS 578T breast) [µM]	GI50 (MOLT-4 leukemia) [µM]	GI50 (MALME-3M melanoma) [µM]	GI50 (CCRF-CEM leukemia) [µM]
COC1=CC(=O)N(C(=O)[C@@H](OC(=O)[C@@H](C)N(C)C(=O)[C@@H]2CCCN2C(=O)[C@H](C(C)C)N(C)C(=O)[C@@H](NC(=O)[C@H](C(C)C)N(Cc2ccccc2)Cc2ccccc2)C(C)C)C(C)C)[C@H]1Cc1ccccc1 (Bn2Val-V[NMeV]P[dNMeA]-X28)	> 54.8	> 100	> 100	> 100	> 77.6	> 100	> 100	> 100	> 100											
Cn1c(=O)c2c(nc3n2CCC(=O)N3CCCCl)n(C)c1=O	> 100	> 100	> 100	> 100	> 100	> 100	> 100		> 100	> 100										
C=CCNc1nc(O)c(/C=C2\C=Nc3ncccc32)s1	2.96	6.92		8.23	6.63	4.96	> 100		9.66	7.95	1.51	2.1	2.51	2.44	1.94	3.4	2.03	2.64		
Cc1ccc(/C(O)=C/c2nc3cccnc3[nH]c2=O)cc1		> 100	> 100	> 100	> 100	> 100	> 100	> 100	> 100	> 100										
CCCCCCCCCCCCCCCCNCC(O)CN (stereo unspecified)	11	12.9	3.72	3.66			44.6	30.2		4.87										
Cn1cc(-c2nc(-c3c[nH]c4ccncc34)cs2)c2ccccc21	2.61	3.43		2.35	3.04	3.32	3.36	3.23	4.4		1.29	1.79	1.11	1.56	1.79	1.64	1.93		1.69	
Nc1ncnc2c1ncn2CCCC(c1ccccc1)P(=O)(O)O (stereo unspecified)	> 100	> 100		> 100			> 100	> 100												
Cc1ccc2n(c1)cc(-c1ccc(/C=N/NC(=N)N/N=C/c3ccc(-c4cn5cc(C)ccc5[n+]4C)cc3)cc1)[n+]2C	35.2	43.8	> 100	> 100	> 100	> 100	> 100		> 100	> 100										
C=C1C2C[C@@H]3OC4CC5O[C@]6(CC5OC4C(C)C3OC(=O)CC3CC[C@@H]4OC5C7OC8C[C@](CCC9CC(=C)[C@H](CCC(C[C@H]1C)O2)O9)(OC7C4O3)O[C@@H]85)C[C@@H]1O[C@@]2(CC(C)[C@@H]3OC(CC(=O)CCO)C(O)C[C@@H]3O2)CC(C)[C@@H]1O6 (stereo partly specified)		1.61	1.8	0.00228				0.189		2.19										
COc1cc(S(=O)(=O)Nc2ccc(-c3csc(N4C(=O)C(Cl)C4c4cccc(Oc5ccccc5)c4)n3)cc2)ccc1Cl (stereo unspecified)	45.8	28.3	> 100	73.9		39.7	52	> 100	> 100	> 100										
CC(=O)Oc1c2c(c(OC(C)=O)c3c1n(C(C)=O)c1ccccc1n3C(C)=O)n(C(C)=O)c1ccccc1n2C(C)=O	46.1	24.9	15.6	31.5				7.56		8.7										
C[N+](C)(C)CCOC(=O)/C=C/c1cnc[nH]1	> 500	> 500	> 500	> 500			> 500	> 500		> 316										
C=CC(C)(C)C1(CC(OC)OC)C(=O)N(C)c2ccccc21 (stereo unspecified)	> 25	> 25	> 25	> 25	> 25	> 25	> 25		> 25											
N=c1n(CC(=O)NC23CC4CC(CC(C4)C2)C3)c2ccccc2n1CC(=O)NC12CC3CC(CC(C3)C1)C2	4.12	3.72	6.23	2.98			5.03	3.04		6										
C[N+](C)=c1ccc2nc3c(ccc4ccccc43)oc-2c1	32.5	29.7	8.53	32.2			37.3	26.1		20.4										
CCOC(=O)CCC(NC(=O)c1ccc(Nc2nc3cc(C(F)(F)F)ccc3nc2C(=O)OCC)cc1)C(=O)OCC (stereo unspecified)		28.6	> 100		34.1	21.9	38			> 100										
Nc1ncnc2c1sc(=S)n2-c1ccccc1	> 100	> 100	> 100	> 100			> 100	> 100		> 100										
CC(C)(C)c1ccc(O)c(C(c2ccc([N+](=O)[O-])cc2)c2cc(C(C)(C)C)ccc2O)c1	3.9	3.16	7.53		3.78		3.92		18.7	5.14										
C/C=C/c1cc2c(c(=O)o1)C(=O)[C@@H](O)[C@H](C)O2	39	30	53.9	31			31	32.5		49.3										
N#CNC(=NCc1ccccc1)NCCc1c[nH]c2ccccc12	> 100	> 100	> 100	> 100			> 100			> 100										
O=C(NC12CC3CC(CC(C3)C1)C2)C(=O)c1c[nH]c2ccc(Br)cc12	28.2	34.2	> 100	41.7			> 100	68.6		44.2										
C=CCOC(=O)c1c(C)n([O-])c2cc(Cl)c(Cl)cc2[n+]1=O		29.5	45.9	84.7	55	41.2	41.1	70.9	65.9	54.4										
CCNC(=O)NNc1ncnc2c1c(-c1ccc(Cl)cc1)cn2-c1ccc(C)cc1	38.9	39	43.1	35	34.8	30.7	65.4	35.5		45.4										
O=C1CCCCC/C1=C\c1cccc([N+](=O)[O-])c1	> 100	40.6	44.2	56.1	56.4	> 100	> 100	72.4		83.5										

SMILES	TGI (SNB-75 CNS) [µM]	TGI (SF-268 CNS) [µM]	TGI (CCRF-CEM leukemia) [µM]	TGI (KM12 colon) [µM]	TGI (MDA-MB-231 breast) [µM]	TGI (MDA-MB-435) [µM]	TGI (EKVX NSCLC) [µM]	TGI (MALME-3M melanoma) [µM]	TGI (HS 578T breast) [µM]	TGI (MOLT-4 leukemia) [µM]	GI50 (SNB-75 CNS) [µM]	GI50 (SF-268 CNS) [µM]	GI50 (KM12 colon) [µM]	GI50 (MDA-MB-231 breast) [µM]	GI50 (MDA-MB-435) [µM]	GI50 (EKVX NSCLC) [µM]	GI50 (HS 578T breast) [µM]	GI50 (MOLT-4 leukemia) [µM]	GI50 (MALME-3M melanoma) [µM]	GI50 (CCRF-CEM leukemia) [µM]
CCOC(=O)C1(C#N)C2(C#N)C(N)=NC(ON=C(C)C)(ON=C(C)C)C12C#N (stereo unspecified)		> 100	> 100	> 100	> 100	> 100	> 100	> 100	> 100	> 100										
COC(=O)[C@H]1[C@@H](O)[C@@]2(O)c3c(OC)cc(OC)cc3O[C@@]2(c2ccc3c(c2)OCO3)[C@@H]1c1ccccc1		2.11	> 50	0.113	0.211	> 50	> 33.3	9.69	2.13	0.0482										
COc1ccc(C2S/C(=C\c3cccc(OC)c3)C(=O)N2NC(=O)Cc2ccccc2)cc1 (stereo unspecified)	> 100	> 100	> 100	> 100				> 100		> 100										
COc1cccc2c1C(=O)c1c(O)c3c(c(O)c1C2=O)C[C@@](O)(C(=O)CN1CCOCC1)C[C@@H]3OC1CC(N)C(O)C(C)O1 (stereo partly specified)	22.4	51.3	> 23.1	51.5			55.9	14.2		1.15								0.234		0.964
CNC(=O)c1cc2nc3ccccc3c(=O)n2c2ccccc12		> 10	> 10	> 10	> 10	> 10	> 10	> 10	> 10	> 10										
Oc1cc(O)c2c(c1)O[C@H](c1cc(O)c(O)c(O)c1)[C@@H](O)C2	38.7	58.7	43.4		34	38.1	94.9	> 100	> 100	> 10										
CCCc1n[nH]c(=O)n1N1C(=O)C=CC1=O			> 100		> 100	> 100	> 100	> 100		> 100										
CC(=O)OC12CC(C(F)(F)F)(C(F)(F)F)OC1(OC(C)=O)CC(C(F)(F)F)(C(F)(F)F)O2 (stereo unspecified)	> 100	6.37	> 100	11.5	53.2	> 100		> 100	> 100	67.6										
NC(=O)COc1c(Br)cc(Br)cc1Br	> 100	> 100	> 100	> 100			> 100	> 100		> 100										
Cc1ccc(S(=O)(=O)/N=C2/N(C)CCCS2(=O)=O)cc1	> 100	> 100	> 100	> 100	31.9	> 100	> 100		> 100	> 100										
Cc1nc(N)sc1C(=O)Nc1ncn[nH]1		> 100		> 100	> 100	> 100	> 100		> 100	> 100										
CC(=O)NNC(=S)/N=C\c1c(O)c2ccccc2oc1=O	> 100	> 100	> 100	> 100	> 100	> 100		> 100	> 100	> 100										
COC(=O)CCCC1(CCCC(=O)OC)CCCCCCCCC(CCCC(=O)OC)(CCCC(=O)OC)C(=O)C1=O	88.7	55.3		> 100		> 100	> 100	60.1	> 100											
CC(C)NCC(O)c1ccc(O)c2ncccc12 (stereo unspecified)	> 100	> 100		> 100	> 100	> 100	> 100		> 100	46.9										
Nc1nc2c(c(-c3ccccc3Cl)n1)COC/C2=C\c1ccccc1Cl	35.3	34.3	32.8	41.8	34.8	24.7	35.2		51	34.6										
COC(=O)c1ccccc1NC(=S)NN(C)C	> 100		> 100	> 100	> 100	> 100	> 100	> 100	> 100	> 100										
COC1=CC(=O)C2C(C1=O)[C@@H]1c3ccccc3OC(C)(C)[C@H]21 (stereo partly specified)	> 100	88.6	65.1	> 100			88.1	34		41.2										
N/C(=N\S(=O)(=O)c1ccc(-c2ccccn2)s1)Nc1ccc(Cl)cc1	45.7	36.6		70.4	27.9		26	33.4	59.6	5.61										
Cc1ccc(S(=O)(=O)NC(=O)NCCc2ccc(O)c(O)c2)cc1	> 100	> 100		> 100	> 100	> 100	> 100	> 100	> 100	> 100										
N#C/C=c1/c2ccccc2n2nc3ccccc3c12		34	> 100	68.3	16.6	> 100	> 100	> 100	> 100											
Clc1ccc2nc3n[nH]c(Cl)c3nc2c1	> 100	> 100		> 100	> 100	> 100	85.4		63.6	> 100										
Brc1c2nc3ccccc3nc2n2ccc3ccccc3c12	> 100	> 100	> 100	> 100			> 100	> 100		> 100										
N=S(=O)(c1ccccc1)c1ccccc1	> 100	> 100	> 100	> 100			> 100	> 100		> 100										
